Holding throughout (assay type): cell-based, Enterovirus 71 (EV-A71)
Assay [1] relates to four EV-A71 strains (BrCr, H, Shenzhen98, Jiangsu52). Kind of assay: CPE inhibition assay, summary over four EV-A71 strains. How it is done:
(§1) An in-vitro antiviral assay was established using the Africa monkey kidney cell line Vero which was infected with different EV-A71 clinical isolates (BrCr, H, Shenzhen98 and Jiangsu52). A total of 24 synthetic compounds were initially screened in such an assay to determine their inhibitory effect on virus replication at 3-fold diluted concentrations serial (400~0.18 μM). The 50% effective concentration (EC50) of each compound was calculated according to its inhibitory rate values with the Reed–Muench method. The 50% cytotoxic concentration (CC50) was defined as the concentration that inhibited 50% cellular growth in comparison with the controls. The selectivity index (SI) was calculated as CC50/EC50. […] Generally, the EV-A71 H strain was less sensitive to most of the active compounds as compared to the other virus strains.
(§2) The anti-EV-A71 activity of compounds was determined by the CPE inhibition method. Briefly, cells (3 × 10^4 cells/well) were plated into 96-well culture plates for incubation for 24 h. The medium was then removed and cells were infected with EV-A71 with 100TCID50 (50% tissue culture infective doses) in serum-free medium for 1 h at 37 °C. Then, the unbound viruses were removed and various concentrations of compounds were supplemented and incubated for another 48 h. The EC50 was determined by the Reed–Muench method. The selectivity index was calculated as the ratio of CC50/EC50 [15].

For assay [2], the system named is EV-A71 strain BrCr. Put plainly: CPE inhibition assay for anti-EV-A71 in Vero cells, BrCr strain. Here is the method:
as §1
(§3) EV-A71 strain ShenZhen98 (SZ98) was isolated from the throat swab sample of an HFMD case which occurred in 1998 in China. This was kindly provided by Dr. Qi Jin, Institute of Pathogen Biology, Chinese Academy of Medical Science and Peking Union Medical School, Beijing, China. EV-A71 strains BrCr (VR-1775) and H (VR-1432) were purchased from the ATCC. The EV-A71 strain JS52 was a kind gift from Dr. Xiangzhong Ye, Beijing Wantai Biological Pharmacy Enterprise Co., Ltd. EV-A71 were all passaged in Vero cells.
as §2

The subject of assay [3] is EV-A71 strain H. Put plainly: CPE inhibition assay for anti-EV-A71 in Vero cells, H strain. Here is the method:
as §1, §3, §2

In assay [4] the test system is EV-A71 (H strain) VP1 protein. Put plainly: Western blot of viral VP1 protein in infected Vero cells. The following applies: H strain MOI = 0.1, 1 h infection then A3 for 24 h. How it is done: (§4) To further confirm the anti-EV-A71 activity, the expression levels of VP1 RNA and protein were determined. Vero cells were infected with the H strain of EV-A71 for 1 h followed by treatment with A3 of various concentrations for another 24 h. […] Meanwhile, the antiviral efficacy of A3 was also tested using viral titer reduction assays.
Vero cells (9 × 10^5 cells/well) were plated into 6-well culture plates for incubation for 16 h. The medium was removed and cells were infected with EV-A71 (H, MOI = 0.1). After 1 h, various concentrations of A3 were supplemented for incubation for another 24 h. The cells were lysed in the M-PER mammalian protein extraction reagent (Thermo, Rockford, IL, USA) containing halt protease inhibitor single-use cocktail (Thermo). The protein concentration was determined by the BCA reagents (Thermo). About 15 μg of proteins was denatured and applied to sodium dodecyl sulfate-polyacrylamide gel electrophoresis (SDS-PAGE). The electrophoresis products were transferred to a polyvinyl idenefluoride (PVDF) film and PVDF membranes were then incubated at room temperature with a specific primary antibody. […]
Figure 2 Compound A3 inhibited EV-A71 replication in vitro. […] Intracellular viral VP1 protein (A) and RNA (B) were determined by Western blot and qRT-PCR assays, respectively. […]
On the technique in general: In western blotting, separated proteins are transferred to a membrane and probed.

Assay [5] has as its system EV-A71 strain ShenZhen98 (SZ98). Kind of assay: CPE inhibition assay for anti-EV-A71 in Vero cells, Shenzhen98 strain. How it is done: as §1, §3, §2
Assay [6] has as its system EV-A71. Put plainly: Viral titer reduction assay. The following applies: cells treated after EV-A71 infection. Here is the method:
as §4
Figure 2 Compound A3 inhibited EV-A71 replication in vitro. Vero cells (9 × 10^5 cells/well) were plated into 6-well culture plates and infected with EV-A71 (multiplicity of infection, MOI = 0.1) for 1 h. The infected cells were then treated with the indicated concentrations of A3 for 24 h. Intracellular viral VP1 protein (A) and RNA (B) were determined by Western blot and qRT-PCR assays, respectively. (C) The inhibition of a viral titer by A3. ** p < 0.01 * p < 0.05.

Where [7] appears, read: Enterovirus A, EVA71, Vero cells, 100TCID50, 48 h.

One may read the IC50 as the midpoint of a concentration-inhibition curve. In general, EC50 refers to the concentration that produces a half-maximal response.

Structures are written as SMILES. “And” between values parts separate entries of the source, which are not always exact repeats. Identical values can stand only once.

Regarding `O=C1c2ccccc2CN1c1ccc(Cl)cc1` [Compound A3, 2-(4-chlorophenyl)isoindolin-1-one], the “SI towards four EV-A71 strains” value in assay [1] (CC50/EC50, range over four strains) is 168-199 and 98–199. Also, the half-maximal inhibitory concentration (IC50) in assay [1] (Enterovirus A, EV71 / EVA71, read-out: Anti-EV71 IC50) was in the range of 1290 to 1530 nM. In addition, the EC50 is 1230 to 1760 nM in assay [1] (Enterovirus A, EVA71, Vero, read-out: EC50 towards four EV-A71 strains); 1290 ± 240 nM in assay [2] (setting [7]); 1530 ± 160 nM in assay [3] (setting [7]); 1290 ± 240 nM in assay [5] (setting [7]). Besides, the “EC50 fold higher than pirodavir” value in assay [1] (relative to reference compound pirodavir) is on record as 2–4 fold. Moreover, the “BrCr SI” value in assay [2] (CC50/EC50) is 199. For the same molecule, the “H SI” value in assay [3] (CC50/EC50) is 168. For the same molecule, in assay [4], the “viral VP1 protein level” value is recorded as “decreased the levels of viral VP1 protein in a dose-dependent manner”. For the same molecule, the “Shenzhen98 SI” value in assay [5] (CC50/EC50) amounted to 199. For the same molecule, the viral titers result in assay [6] is “dose-dependent reduction in viral titers”.
